Assay results: patent EP2137192B1, “Derivatives of galantamine as pro-drugs for the treatment of human brain diseases” (priority 2008, dated 2009)

Tests used:
[1] = target: T1, a4ß2 neuronal nicotinic acetylcholine receptor (Homo sapiens, UniProt P17787+P43681); experiment: Allosteric potentiation of nAChR in HEK-293 cells, whole-cell patch clamp; type: cell-based; details: increase in response to acetylcholine, Figure 3
T1 construct: expressed in transfected cells; host or cells: HEK-293
Protocol: (§1) 1983;91:49-60. […] Butyrylcholinesterase, 25 units/ml, was used. Reaction temperature was 37°C.
Investigation of the allosteric modulation effect of drug candidates on nicotinic acetylcholine receptors (nAChRs) expressed in HEK-293 cells by electrophysiology. Results shown as figure 3
Single HEK-293 cells expressing either human α4β2, human α3β4, or chimeric chicken α7 (with mouse 5HT3) nAChR were plated on fibronectin-coated cover slips for 3 days before measurement. The selected nAChR containing cells were placed in the recording bath, filled with extracellular buffer (145 mM NaCl, 5 mM KCl, 1 mM MgCl2, 2 mM CaCl2, 10 mM D-glucose, 10 mM HEPES, pH 7.3, approximately 300 mOsm). […] A programmable puller (Sutter, USA) was used to prepare a twin pair of ready for use pipettes. […] 1, 5, 10, 50, 100, 500, 1,000, 5,000 and 10,000 nM, and solutions were applied to the cell surface during 500 ms pulses through the U-tube, and then corresponding currents, digitized to 10 kHz, were recorded for 10 s. […] The averaged peak amplitudes of the currents, measured in the presence of selected compound concentrations, were compared with those determined in the absence of compounds (control) and they were calculated as % of control. […]

in vivo = details: for Co (Brain), highest pro-galantamine concentration achieved in mouse brain: i.v. injection of 3 mg/kg, for Gal: galantamine after the same amount of galantamine; for Kp: in vivo
Protocol: In table 1, the key pharmacokinetic data of benzoyl-galantamine, of several other R1-pro-galantamines and of galantamine (for comparison) are listed. Table 1: Pharmacokinetic data of several R1-pro-galantamines in the mouse
Co is the highest pro-galantamine concentration (ng/ml) achieved in mouse brain after i.v. injection of 3 mg/kg of pro-galantamine. R-Pro ist he brain-to-blood concentration ratio of pro-galantamine, R-Gal that of galantamine under these experimental conditions. For comparison, Co and R-Gal are also provided for i.v. injection of the same amount of galantamine.
• Figure 1: Brain esterase inhibition by galantamine and several pro-galantamines. A 20% mouse brain homogenate was used, supplemented with 200 µM of acetylthiocholine as substrate, and the initial reaction kinetics were measured according to Riddles PW, Blakeley RL, Zerner B., "Reassessment of Ellman's reagent." Methods Enzymol. 1983;91:49-60. […] In derivative Gln 1063 R1 in formula I is -O-Si(CH3)2-C(CH3)2-C(CH3)2H. • Figure 2: Enzymatic cleavage of pro-galantamine to galantamine. Butyrylcholinesterase, 25 units/ml, was used. Reaction temperature was 37°C. Appearance of the fluorescent reaction product galantamine was determined by fluorescence detection. • Figure 3: Interaction of galantamine and pro-galantamine with a4ß2 neuronal nicotinic acetylcholine receptor ectopically expressed in HEK-293 cells. The increase in response to acetylcholine in the presence of galantamine and Gln-1062, respectively, was determined by whole-cell patch clamp recording. […] Scopolamine induces a memory deficit that can be measured by […] alternation in a T-maze trial. The cognition enhancing drugs were i.p. injected at several different doses together with scopolamine 20 min before a T-maze trial. Recovery was measured as a function of dose, and the EC50 was determined for each drug.
Determination of the pharmacokinetic profiles of Gln-1062 and its cleavage product galantamine in blood and brain. Determine the brain-to-blood concentration ratios of Gln-1062 and its cleavage product galantamine, and assess the blood-brain barrier penetration capacities.
Blood samples were collected from the retro-orbital plexus. 0.5 ml of blood was collected into a pre-labeled polypropylene micro centrifuge tube containing sodium citrate as the anticoagulant, and kept on ice.
Immediately after blood withdrawal, brain was perfused with phosphate buffer saline (pH 7.4), removed and frozen on dry ice.
Brain samples were thawed on ice and weighed. An appropriate volume ice cold homogenizing media (methanol: water::20:80,v/v) added. On ice, homogenized the brain sample with the polytron homogenizer and make up the volume with homogenizing media to get 1 gm of brain per 4 mL of homogenate. After homogenizing, immediately freezed the brain homogenate samples at -80°C until analysis.

[2] = logP (partition coefficient); type: physicochemical; details: source of the values not stated
Excerpt: "logP" is defined as the decadic logarithm of the partition coefficient P which is the ratio of […], as the neutral molecule.

[3] = galantamine administered as the unmodified drug; cited from earlier work
[4] = Reversal from scopolamine-induced amnesia in mice (T-maze alternation); type: in vivo; details: i.p., Figure 6
Protocol: as §1
Gln 1062, Gln 0979 and galanthamine were dissolved in 15% -hydroxypropyl-β-cyclodextrin in 96 mM NaCl (isotonic) supplied by the sponsor. Gln 1062 and Gln 0979 were used in concentrations of […], 0.03, 0.1 and 0.2 mg/ml, which when given in a volume of 10 ml/kg result in doses of 0.1, 0.3, 1 and 2 mg/kg i.p., respectively. Galanthamine was used in concentrations of 0.03, 0.1, 0.2 and 0.5 mg/ml, which when given in a volume of 10 ml/kg result in doses of 0.3, 1, 2 and 5 mg/kg i.p., respectively. Control animals received 15% -hydroxypropyl-β-cyclodextrin in 96 mM NaCl injection as a vehicle. […]
The potential cognitive enhancing property of Gln 1062, Gln 0979 and galanthamine were evaluated in scopolamine-treated mice in the T-maze alternation model under the same experimental conditions. […]
Memory performance was assessed by the percentage of spontaneous alternation in the T-maze. […]
The percentage of alternation over the 14 free-choice trials was determined for each mouse and was used as an index of working memory performance. […]
Analysis of variance (ANOVA) was performed on the result data. […] The drug induced reversion of scopolamine-induced memory deficit was calculated by setting the respective response of the saline/vehicle group as 100% and the scopolamine/vehicle group as 0% reversion. […]

brain cholinesterase = target: T2, brain cholinesterase (Mus musculus, UniProt P21836); experiment: Inhibition of brain esterase, modified Ellman test in mouse brain homogenate; type: biochemical; details: 20% mouse brain homogenate, 200 µM acetylthiocholine; Figure 1
T2 construct: from tissue; host or cells: mouse brain homogenate
T2 sequence (P21836 32-614): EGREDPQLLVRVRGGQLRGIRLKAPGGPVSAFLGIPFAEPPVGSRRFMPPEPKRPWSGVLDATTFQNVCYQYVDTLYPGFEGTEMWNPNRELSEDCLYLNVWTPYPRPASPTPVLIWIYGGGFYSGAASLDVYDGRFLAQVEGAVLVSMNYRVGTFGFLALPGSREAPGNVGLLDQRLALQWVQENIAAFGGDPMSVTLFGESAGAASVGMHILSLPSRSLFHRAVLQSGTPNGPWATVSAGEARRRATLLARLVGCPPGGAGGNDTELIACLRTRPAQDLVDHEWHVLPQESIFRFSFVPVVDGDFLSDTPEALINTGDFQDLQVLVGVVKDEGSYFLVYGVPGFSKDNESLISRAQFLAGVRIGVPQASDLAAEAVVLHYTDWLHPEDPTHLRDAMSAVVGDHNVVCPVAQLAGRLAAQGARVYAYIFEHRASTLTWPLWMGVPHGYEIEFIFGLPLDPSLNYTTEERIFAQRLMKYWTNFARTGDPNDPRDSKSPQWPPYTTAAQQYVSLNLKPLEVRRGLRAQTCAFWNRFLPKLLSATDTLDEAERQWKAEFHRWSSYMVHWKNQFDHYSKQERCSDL
Protocol: as §1
The brain is removed from the animal (mouse), shock frozen in liquid nitrogen and stored at minus 80°C until use. Before preparing the extract, the frozen brain is thawed on ice and the weight is determined. Ice cold buffer (130 mM NaCl, 5 mM KCl, 2.5 mM CaCl2, 1 mM MgCl2, 5 mM Glucose, 5 mM HEPES, pH 7.4) is added to the thawed mouse brain (1:4, weight to volume, resulting in a 20 % brain homogenate). The tissue is then homogenized in a potter homogeniser on ice, moving the piston up and down 11 times at 240 rpm. The freshly prepared mouse brain homogenate is divided into aliquots.
A modified Ellmann's esterase test is used. Briefly the method relies on the cleavage of the substrate acetylthiocholine to acetate and thiocholine. […] The inhibition is expressed as per cent of the non inhibited reaction according to following equation: % Inhibition = 100*(1-(Slopeinhibited/Slopenoninhibited)). […]

T1 sequence (P43681 29-627 limits assumed): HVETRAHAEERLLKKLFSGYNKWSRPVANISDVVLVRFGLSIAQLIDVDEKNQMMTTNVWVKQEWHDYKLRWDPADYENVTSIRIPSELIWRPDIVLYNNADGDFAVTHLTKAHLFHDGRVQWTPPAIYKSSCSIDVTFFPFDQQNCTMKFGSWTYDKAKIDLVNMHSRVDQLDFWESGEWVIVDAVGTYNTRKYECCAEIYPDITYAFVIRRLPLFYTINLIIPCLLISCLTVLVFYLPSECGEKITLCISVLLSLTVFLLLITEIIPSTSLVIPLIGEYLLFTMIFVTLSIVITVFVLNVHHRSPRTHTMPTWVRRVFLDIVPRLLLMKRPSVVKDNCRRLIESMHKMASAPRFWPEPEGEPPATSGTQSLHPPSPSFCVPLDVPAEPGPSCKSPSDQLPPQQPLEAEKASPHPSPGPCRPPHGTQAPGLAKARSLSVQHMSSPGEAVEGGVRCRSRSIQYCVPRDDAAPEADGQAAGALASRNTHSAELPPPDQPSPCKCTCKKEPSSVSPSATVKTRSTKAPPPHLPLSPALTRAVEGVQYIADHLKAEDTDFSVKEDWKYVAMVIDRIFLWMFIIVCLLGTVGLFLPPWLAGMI
T1 sequence (P17787 26-502): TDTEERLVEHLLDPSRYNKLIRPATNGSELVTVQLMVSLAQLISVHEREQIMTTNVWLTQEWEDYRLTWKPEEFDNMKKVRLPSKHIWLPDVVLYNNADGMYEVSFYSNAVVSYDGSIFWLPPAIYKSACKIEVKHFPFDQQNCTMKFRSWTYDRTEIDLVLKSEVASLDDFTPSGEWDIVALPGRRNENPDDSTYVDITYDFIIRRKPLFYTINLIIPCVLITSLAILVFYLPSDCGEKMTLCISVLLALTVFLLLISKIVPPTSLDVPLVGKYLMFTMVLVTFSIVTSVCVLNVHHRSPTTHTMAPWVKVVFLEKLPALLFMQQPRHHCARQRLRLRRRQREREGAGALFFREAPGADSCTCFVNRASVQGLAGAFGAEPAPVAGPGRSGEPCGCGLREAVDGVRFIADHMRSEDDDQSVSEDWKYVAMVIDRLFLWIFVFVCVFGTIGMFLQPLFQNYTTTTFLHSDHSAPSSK

Compound | maximal enhancement of response [1] | Co (Brain), highest pro-galantamine concentration achieved in mouse brain (in vivo) [ng/mL] | Kp (in vivo; mouse) | Kp (in vivo; mouse, iv, 3 mg/kg) | logP [2] | brain-to-plasma ratio [3] | efficacy in reversing scopolamine-induced amnesia relative to galantamine [4] | inhibition of brain esterase (brain cholinesterase) | brain-to-blood concentration ratio (RBB-proGal) (in vivo; mice) | concentration in blood at start of curve (in vivo; mouse blood, 3mg/kg, Figure 4b) | R-Pro, brain-to-blood concentration ratio of pro-galantamine (in vivo; mouse, i.v. 3 mg/kg of pro-galantamine) | R-Gal, brain-to-blood concentration ratio of galantamine (in vivo; mouse, i.v. 3 mg/kg of pro-galantamine, for Gal: same amount of galantamine)
COc1ccc2c3c1O[C@H]1C[C@@H](O)C=C[C@@]31CCN(C)C2 [Gal, galantamine] | ~ 40% | 1741 | ~1.3 | 1.2 | 1.7 | ~ 1.3 |  |  |  |  |  | 
COc1ccc2c3c1O[C@H]1C[C@@H](OC(=O)c4ccccc4)C=C[C@@]31CCN(C)C2 [Gln 1062, (4aS,6R,8aS)-4a,5,9,10,11,12-Hexahydro-3-methoxy-11-methyl-6H-benzofuro[3a,3,2-ef][2]benzazepin-6-ol, benzoate (ester)] | ~ 17% | 4812 |  |  | 3 |  | approximately 4 times | little, if any cholinesterase inhibitory activity | > 19 | about 0.3 µg/g | 19.3 | 2.2
